Measured values published in patent publication US12194021B2, “Modified herbal compositions for neuromodulation” (University of Southern California, priority 2021, dated 2025).

How the values were obtained:
Format in all cases: in vivo
[1] = test system: TG-mice; assay: Novel Object Recognition (NOR); conditions: 1 mg/kg oral in 2% sucrose, 3 months, untreated TG 51.2±3.6%, wt 68.9±6.8%
Procedure: 4) Memory Test Protocol. Novel Object Recognition (NOR): Day 1-3: Habituation (once/day). Top open containers (open field) were used with video camera to record animal behavior. An animal was put into a container with no objects for 5 min. Context remained the same for each animal.
Day 4, Familiarization: Two identical objects (toys-FO: familiar object) were put into the container at specific positions. Then animals were put into the container to explore the objects for 5 min. Retention Trial 1.5 h: Each animal was placed in its home cage for 1.5 h after the familiarization. One of the toys was replaced with a new toy (NO, novel object and very different from FO). […]
Day 5, Retention Trial 24 h: We placed another new toy (NO) along with an original object (FO) in the container. […] We scored the animal behavior offline according to how long the animal spent exploring each object. The Object Recognition Index (ORI) was calculated, such that ORI=(tn−tf)/(tn+tf), where tf and tn represent times of exploring the familiar and novel objects, respectively.
Mice were divided into four groups: (1) C57BL/6 wt male mice were treated with oral administration of 2% sucrose; (2) C57B1/6 wt male mice with oral administration of 1 mg/kg D-P in 2% sucrose; (3) TG-mice with oral administration of 2% sucrose; and (4) TG-mice with 1 mg/kg D-P in 2% sucrose. […] Next, we evaluated NCR (FIG. 3C). The RI was calculated.

[2] = test system: TG-mice; assay: Open field test of locomotor activity; conditions: 3 months
Procedure: 5) Locomotor assay: To measure the locomotor activity, the numbers of total entries were measured for each animal. Statistical differences were determined using ANOVA. These experiments will determine the effects of D-P on anxiety levels.
DHM-Piperidine Complex (D-P) can replicate DHM effects to improve behavioral impairment in TG-mice. We examined the effect of D-P on AD symptom-like behavior in aged TG2576 mice compared with age-matched wt mice. Mice were divided into three groups: (1) C57BL/6 wt male mice (2% sucrose, oral administration), (2) TG-mice (2% sucrose, oral administration), and (3) TG-mice with D-P (2 mg/kg in 2% sucrose), respectively. After 3 months of treatment, mice were examined with behavioral assays.
Locomotor activity was assayed with open field test. Running distance is one of the parameters quantifying locomotor activity (FIG. 4A). Wt control mice ran 882±55 cm during 10 min. TG-mice ran a much shorter distance (255±12 cm), while the running distance of TG-mice treated with D-P increased to 611±99 cm. […] D-P treatment in TG-mice increased rearing (19.3±2.0 times), times to explore the center (1.3±2.0 times), and duration to stay at the center (0.13±0.03 min). […] Daily oral D-P treatment for TG-mice improves locomotor activity and increased exploring activity, an instinct of animals. Anxiety was assayed with the EPM (FIG. 4D). The wt control spent 48.5±7.5% of total time in open arms and 33.5±3.2% in closed arms.

[3] = Six-month long-term toxicity evaluation (metabolic rate); conditions: male Sprague Dawley rats, gavage 1, 10 and 500 mg/kg daily, six months
Procedure: To evaluate D-P's safety, we tested dosages of 1, 10, and 500 mg/kg (500 time high concentration) of D-P in rats. Sprague Dawley rats, male, body weight starting at 175±5 g, were used in this study. Control group rats were gavaged SUC 20 ml/kg, and D-P group rats were gavaged 1, 10, and 500 mg/kg D-P every day for six months.

[4] = test system: TG-mice; assay: Elevated plus maze (EPM), anxiety in TG-mice; conditions: 2 mg/kg, 3 months
Text: 2) Whole-Cell Patch-Clamp Recordings from Brain Slices. Transverse slices (400 lm) of dorsal hippocampus were obtained from wt and TG-SwDI mice (male, 20 months old) using a vibratome (VT 100; Technical Products International). Slices were perfused continuously with artificial CSF (ACSF) composed of the following (in mM): 125 NaCl, 2.5 KCl, 2 CaCl2, 2 MgCl2, 26 NaHCO3, and 10 D-glucose. The ACSF was bubbled continuously with 95% O2/5% CO2 to ensure adequate oxygenation of slices and a pH of 7.4 and kept at 34±0.5° C. for perfusion. TTX (0.5 μM), APV (40 μM), CNQX (10 μM), and CGP54626 (1 μM, GABABR antagonist) were added to ACSF to pharmacologically isolate GABAAR-mediated mIPSCs. […] Animals were placed on the central area of the maze, tested for 5 min and video recorded. The following measures were scored: number of entries into open arms, closed arms, or center platform and time spent in each of these areas. […]
6) The elevated plus maze assay (EPM) was performed in a quiet and dark room with only a low power red light. […] were placed on the central area of the maze, and their behavior video recorded for 5 min. The number of entries into open arms, closed arms, or center platform and time spent in each of these areas were scored during off-line analysis. […]
Locomotor activity was assayed with open field test. Running distance is one of the parameters quantifying locomotor activity (FIG. 4A). […]

piperidin-1-ium (2R,3R)-2-(3,4-dihydroxy-5-oxidophenyl)-3,5-dihydroxy-4-oxochroman-7-olate [D-P]
Object Recognition Index (ORI) [1]: 70.1±6.8% | running distance ([2]; 2 mg/kg in 2% sucrose, 10 min, untreated TG 255±12): 611±99 cm | duration to stay at the center ([2]; 2 mg/kg, untreated TG 0.02±0.01): 0.13 ± 0.03 min | times to explore the center ([2]; 2 mg/kg, untreated TG 0.2±0.1): 1.3±2.0 times | rearing ([2]; 2 mg/kg, untreated TG 12.5±2.1): 19.3±2.0 times | metabolic rate [3]: did not alter the metabolic rate | time in open and closed arms (EPM) [4]: spent a similar amount of time in each arm
